Test results published in patent US20120108629A1, “New use of neferine” (Institute of Chinese Materia Medica, China Academy, priority 2009, published 2012).

Legend:
TRPV1 [1] = assay: Intracellular calcium change in DRG cells, Fluo-4 fluorescence (Examples 4-5, Tables 4-5); assay type: cell-based, rat
Method: (§1) Detection of intracellular calcium concentrations of DRG cells: DRG cells cultured under normal, low and high temperature conditions was obtained. The medium was discarded and the cells were washed after certain time. 0.1%F-127, 5 μM of Fluo-4-AM, M fluorescent dye were added and loaded at 25° C. out of light for 30 min. After dye loading, the redundant dye was washed out and buffer and test compounds were added respectively. The cells were put in a closed chamber on a microscope stage. Fluorescence dyed cells were detected with appropriate conditions. The change of fluorescence intensity in each cell was determined and the data were analyzed by software. The change of the intracellular calcium concentration was indicated by fluorescence intensity. The change degree of the intracellular calcium concentration was represented by the percent ratio of the change value of fluorescence intensity before and after administration and the value of fluorescence intensity before administration (Δ[Ca2+]i), i.e. Δ[Ca2+]i=(fluorescence intensity value after administration F-fluorescence intensity value before administration F0)/fluorescence intensity value before administration F0×100%. The change of the intracellular calcium concentration indicated the function of TRP.
(§2) The medium was discarded and the fluorescent dye was added and loaded for 30 min. The change of fluorescence intensity in cell was determined in a closed chamber on a microscope stage and the change of the intracellular calcium concentration was assayed.
as §2

TRPV1 mRNA = TRPV1 mRNA expression in DRG cells by real-time PCR; assay type: cell-based, rat; details: for TRPV1 mRNA expression (2^−ΔΔCT): 37° C. 24 h
TRPV1 [2] = target: TRPV1 (Rattus norvegicus, UniProt O35433); assay: Intracellular calcium change in DRG cells, Fluo-4 fluorescence (Examples 9-11, Tables 9-11); assay type: cell-based
Method: as §1, §2, §2
(this is the appropriate stimulation time for the intracellular calcium change after stimulation under 19° C., and the experiment data was not shown). The medium was discarded and the fluorescent dye was added and loaded for 30 min.

TRPM8 mRNA = TRPM8 mRNA expression in DRG cells by real-time PCR; details: DRG cells
Method: DRG were aseptically removed and meticulously cleaned the rootlets and connective tissue. The tissue was digested with collagenase and trypsin in succession, and then centrifuged and the digestive liquid was discarded. Cells were prepared into single cell suspension in common culture medium, and then calculated and adjusted to 10^5 nerve cells per ml. It was incubated in culture plates pre-coated with laminin at 37° C. in 5% CO2 for 48 hours. Camptothecine was used to inhibit proliferation of other cells. Culture was continued to obtain DRG cells with a high purity (>98%).
Detection of TRPM8 and TRPV1 mRNA expression: The total RNA of the DRG neuronal cells was extracted in a routine way, after exposure to the tested agents of various concentrations under the normal, low and high temperature conditions respectively. The concentration of RNA was measured and its cDNA was prepared. The desired amount of resulting cDNA and TRPM8 or TRPV1 gene primers were added on the IQ5-Type real-time IQ5-Type real-time PCR meter with GAPDH as the endogenous control to perform extension. Melting curves were generated. Relative gene expression was calculated using the comparative threshold cycle (2-^ΔΔCT) method with the calculated formula as following:
ΔΔCt=(Ct,Target-Ct,GAPDH)x-(Ct,Target-Ct,GAPDH)Control
X represents any one of tested, Control represents double target gene expression after GAPDH correction.
The purified culture medium of DRG cells was added with three different concentrations of test compounds and cultured at 37° C. in 5% CO2 for 24 h. The total RNA was extracted immediately after culture. The TRPM8 agonist hexahydrothymol was positive control group and the normal culture medium was vehicle control group. Then the real-time PCR amplification was performed and TRPM8 mRNA was determined.
The purified culture medium of DRG cells was added with three different concentrations of test compounds and cultured at 37° C. in 5% CO2 for 23 h followed by 39° C. in 5% CO2 for 1 h. The total RNA was extracted immediately after culture. The TRPM8 agonist hexahydrothymol was positive control group and the normal culture medium was vehicle control group. Then the real-time PCR amplification was performed and TRPM8 mRNA was determined.
The purified culture medium of DRG cells was added with three different concentrations of test compounds and cultured at 37° C. in 5% CO2 for 22 h followed by 19° C. in 5% CO2 for 2 h. The total RNA was extracted immediately after culture. The TRPM8 agonist hexahydrothymol was positive control group and the normal culture medium was vehicle control group. Then the real-time PCR amplification was performed and TRPM8 mRNA was determined.

[3] = 37° C. 22 h then 19° C. 2 h, 37.5 μmol/L
[4] = 37° C. 22 h then 19° C. 2 h, 75 μmol/L
[5] = 37° C. 22 h then 19° C. 2 h, 150 μmol/L
[6] = 37° C. 23 h then 39° C. 1 h, 37.5 μmol/L
[7] = 37° C. 23 h then 39° C. 1 h, 75 μmol/L
[8] = 37° C. 23 h then 39° C. 1 h, 150 μmol/L

TRPV1 (Rattus norvegicus, UniProt O35433), sequence (O35433 whole entry): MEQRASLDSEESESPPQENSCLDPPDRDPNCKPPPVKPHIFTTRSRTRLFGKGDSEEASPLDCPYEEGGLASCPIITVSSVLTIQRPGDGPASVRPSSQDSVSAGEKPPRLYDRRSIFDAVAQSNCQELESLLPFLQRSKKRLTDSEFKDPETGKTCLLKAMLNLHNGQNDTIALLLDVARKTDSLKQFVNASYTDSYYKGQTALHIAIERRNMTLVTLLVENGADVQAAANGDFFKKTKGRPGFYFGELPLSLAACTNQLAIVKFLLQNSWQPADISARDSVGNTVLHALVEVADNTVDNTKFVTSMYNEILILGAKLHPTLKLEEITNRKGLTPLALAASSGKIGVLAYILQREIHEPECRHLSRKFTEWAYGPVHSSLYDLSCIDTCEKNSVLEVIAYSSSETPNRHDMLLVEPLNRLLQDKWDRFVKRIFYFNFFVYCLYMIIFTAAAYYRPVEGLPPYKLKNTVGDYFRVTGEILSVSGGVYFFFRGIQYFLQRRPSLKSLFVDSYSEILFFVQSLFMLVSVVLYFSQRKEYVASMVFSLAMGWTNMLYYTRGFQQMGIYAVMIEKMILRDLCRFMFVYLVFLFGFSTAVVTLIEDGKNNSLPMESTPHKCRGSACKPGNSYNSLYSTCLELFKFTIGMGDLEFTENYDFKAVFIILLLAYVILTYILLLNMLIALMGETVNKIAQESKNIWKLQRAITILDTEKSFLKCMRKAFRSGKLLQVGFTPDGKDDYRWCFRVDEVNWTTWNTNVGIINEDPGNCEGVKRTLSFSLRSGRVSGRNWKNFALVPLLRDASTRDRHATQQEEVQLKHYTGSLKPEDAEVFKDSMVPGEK

CC1CCC(C(C)C)C(O)C1 (stereo not drawn) [hexahydrothymol, reference compound]
Intracellular Calcium changes [(F1 − F0)/F0/%] (TRPV1 [1]; Table 4, DRG cells, 37° C. 24 h, 37.5 μmol/L): 116.52 ± 10.22%
Intracellular Calcium changes [(F1 − F0)/F0/%] (TRPV1 [1]; Table 4, DRG cells, 37° C. 24 h, 75 μmol/L): 117.46 ± 13.58%
Intracellular Calcium changes [(F1 − F0)/F0/%] (TRPV1 [1]; Table 4, DRG cells, 37° C. 24 h, 150 μmol/L): 120.65 ± 12.19%
Intracellular Calcium changes [(F1 − F0)/F0/%] (TRPV1 [1]; Table 5, DRG cells, 37° C. 22 h then 39° C. 2 h, 37.5 μmol/L): 107.54 ± 13.09%
Intracellular Calcium changes [(F1 − F0)/F0/%] (TRPV1 [1]; Table 5, DRG cells, 37° C. 22 h then 39° C. 2 h, 75 μmol/L): 108.63 ± 15.17%
Intracellular Calcium changes [(F1 − F0)/F0/%] (TRPV1 [1]; Table 5, DRG cells, 37° C. 22 h then 39° C. 2 h, 150 μmol/L): 112.92 ± 13.19 %
TRP V1 mRNA expression(2^−ΔΔCT) (TRPV1 mRNA; [3]): 0.54 ± 0.17
TRP V1 mRNA expression(2^−ΔΔCT) (TRPV1 mRNA; [4]): 0.48 ± 0.19
TRP V1 mRNA expression(2^−ΔΔCT) (TRPV1 mRNA; [5]): 0.47 ± 0.15
TRP V1 mRNA expression(2^−ΔΔCT) (TRPV1 mRNA; [6]): 4.22 ± 0.49
TRP V1 mRNA expression(2^−ΔΔCT) (TRPV1 mRNA; [7]): 4.01 ± 0.73
TRP V1 mRNA expression(2^−ΔΔCT) (TRPV1 mRNA; [8]): 4.05 ± 0.81
TRPV1 mRNA expression (2^−ΔΔCT) (TRPV1 mRNA; 37.5 μmol): 0.96 ± 0.21
TRPV1 mRNA expression (2^−ΔΔCT) (TRPV1 mRNA; 75 μmol): 1.10 ± 0.28
TRPV1 mRNA expression (2^−ΔΔCT) (TRPV1 mRNA; 150 μmol): 1.08 ± 0.31
Intracellular Calcium changes [(F1 − F0)/F0/%] (TRPV1 [2]; Table 9, DRG cells, 37° C. 24 h, 37.5 μmol/L): 100.14 ± 11.26%
Intracellular Calcium changes [(F1 − F0)/F0/%] (TRPV1 [2]; Table 9, DRG cells, 37° C. 24 h, 75 μmol/L): 101.82 ± 14.89%
Intracellular Calcium changes [(F1 − F0)/F0/%] (TRPV1 [2]; Table 9, DRG cells, 37° C. 24 h, 150 μmol/L): 98.31 ± 12.17%
Intracellular Calcium changes [(F1 − F0)/F0/%] (TRPV1 [2]; Table 10, DRG cells, 37° C. 22 h then 39° C. 2 h, 37.5 μmol/L): 133.49 ± 15.18%
Intracellular Calcium changes [(F1 − F0)/F0/%] (TRPV1 [2]; Table 10, DRG cells, 37° C. 22 h then 39° C. 2 h, 75 μmol/L): 132.01 ± 14.50%
Intracellular Calcium changes [(F1 − F0)/F0/%] (TRPV1 [2]; Table 10, DRG cells, 37° C. 22 h then 39° C. 2 h, 150 μmol/L): 126.08 ± 12.48%
Intracellular Calcium changes [(F1 − F0)/F0/%] (TRPV1 [2]; Table 11, DRG cells, 37° C. 21 h then 19° C. 3 h, 37.5 μmol/L): 96.91 ± 11.34%
Intracellular Calcium changes [(F1 − F0)/F0/%] (TRPV1 [2]; Table 11, DRG cells, 37° C. 21 h then 19° C. 3 h, 75 μmol/L): 96.75 ± 11.08%
Intracellular Calcium changes [(F1 − F0)/F0/%] (TRPV1 [2]; Table 11, DRG cells, 37° C. 21 h then 19° C. 3 h, 150 μmol/L): 95.48 ± 10.23%
TRPM8 mRNA expression (2^−ΔΔCT) (TRPM8 mRNA; [3]): 3.67 ± 0.93
TRPM8 mRNA expression (2^−ΔΔCT) (TRPM8 mRNA; [4]): 3.72 ± 1.09
TRPM8 mRNA expression (2^−ΔΔCT) (TRPM8 mRNA; [5]): 4.07 ± 1.12
TRPM8 mRNA expression (2^−ΔΔCT) (TRPM8 mRNA; [6]): 0.89 ± 0.25
TRPM8 mRNA expression (2^−ΔΔCT) (TRPM8 mRNA; [7]): 0.91 ± 0.27
TRPM8 mRNA expression (2^−ΔΔCT) (TRPM8 mRNA; [8]): 0.96 ± 0.32
TRPM8 mRNA expression (2^−ΔΔCT) (TRPM8 mRNA; 37° C. 24 h, 37.5 μmol/L): 1.13 ± 0.22
TRPM8 mRNA expression (2^−ΔΔCT) (TRPM8 mRNA; 37° C. 24 h, 75 μmol/L): 1.20 ± 0.28
TRPM8 mRNA expression (2^−ΔΔCT) (TRPM8 mRNA; 37° C. 24 h, 150 μmol/L): 1.29 ± 0.31
